Experimental findings from PubChem BioAssay AID330 (DTP/NCI, 2004) are described below.

Where “and” joins values, the source holds several entries; their conditions need not be identical. Equal entries are not always repeated. Inconclusive results and toxic doses are left out.

In the test the test system is P388 leukemia ip, CD2F1 mice, survival T/C. The experiment in a line: NCI In Vivo Anticancer Drug Screen. Data for tumor model P388 Leukemia (intraperitoneal) in CD2F1 (CDF1) mice. As to conditions: endpoint: median survival time, higher = longer survival. Put shortly:
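Mice carrying the transplanted tumor received test compound or vehicle. Survival was recorded in each group, and the value is the treated-group measurement divided by that of the vehicle-treated control group.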

[1] abbreviates: dose: 25.0 mg/kg/injection, schedule: Q01DX009 (ip), vehicle: saline with Tween-80.
Where [2] appears, read: dose: 25.0 mg/kg/injection, schedule: Q01DX009 (ip), vehicle: saline.
[3] abbreviates: dose: 50.0 mg/kg/injection, schedule: Q01DX009 (ip), vehicle: saline with Tween-80.
The mark [4] stands for this setting: dose: 50.0 mg/kg/injection, schedule: Q01DX009 (ip), vehicle: saline.
[5] abbreviates: dose: 100.0 mg/kg/injection, schedule: Q01DX009 (ip), vehicle: saline with Tween-80.
Where [6] appears, read: dose: 100.0 mg/kg/injection, schedule: Q01DX009 (ip), vehicle: saline.
[7] abbreviates: dose: 200.0 mg/kg/injection, schedule: Q01DX009 (ip), vehicle: saline with Tween-80.
[8] abbreviates: dose: 200.0 mg/kg/injection, schedule: Q01DX009 (ip), vehicle: saline.
Setting [9] is: dose: 60.0 mg/kg/injection, schedule: Q01DX005 (ip), vehicle: saline with Tween-80.
The mark [10] stands for this setting: dose: 120.0 mg/kg/injection, schedule: Q01DX005 (ip), vehicle: saline with Tween-80.
Where [11] appears, read: dose: 240.0 mg/kg/injection, schedule: Q01DX005 (ip), vehicle: saline with Tween-80.
Where [12] appears, read: dose: 12.5 mg/kg/injection, schedule: Q01DX009 (ip), vehicle: saline with Tween-80.
Where [13] appears, read: dose: 400.0 mg/kg/injection, schedule: Q01DX009 (ip), vehicle: saline with Tween-80.
Setting [14] is: dose: 100.0 mg/kg/injection, schedule: Q04DX003 (ip), vehicle: saline with Tween-80.
The mark [15] stands for this setting: dose: 200.0 mg/kg/injection, schedule: Q04DX003 (ip), vehicle: saline with Tween-80.
Setting [16] is: dose: 400.0 mg/kg/injection, schedule: Q04DX003 (ip), vehicle: saline with Tween-80.

As to `CN(C)CC1(C)C(=O)N(C)C(=O)N(C2CCCCC2)C1=O` (configuration not stated), the T/C reads like this: under setting [1], 100 % of control; under setting [2], 100 % of control; under setting [3], 107 % of control; under setting [4], 104 % of control and 105 % of control; under setting [5], 107 % of control; under setting [6], 113 % of control. The T/C is 117 % of control under setting [7] and 122 % of control under setting [8].
Turning to `COc1cccc(C2NC(c3cccc(OC)c3)C3CCCC2C3=O)c1` (configuration not stated), the T/C runs as follows: (dose: 25.0 mg/kg/injection, schedule: Q01DX005 (ip), vehicle: Klucel (hydroxypropylcellulose) (HPC)) 103 % of control; (dose: 50.0 mg/kg/injection, schedule: Q01DX005 (ip), vehicle: Klucel (hydroxypropylcellulose) (HPC)) 102 % of control; (dose: 100.0 mg/kg/injection, schedule: Q01DX005 (ip), vehicle: Klucel (hydroxypropylcellulose) (HPC)) 106 % of control; (dose: 200.0 mg/kg/injection, schedule: Q01DX005 (ip), vehicle: Klucel (hydroxypropylcellulose) (HPC)) 102 % of control.
Turning to `O=C(O)CNC(CO)(CO)CO`, the T/C is, setting by setting: (dose: 60.0 mg/kg/injection, schedule: Q01DX005 (ip), vehicle: saline) 102 % of control; (dose: 120.0 mg/kg/injection, schedule: Q01DX005 (ip), vehicle: saline) 100 % of control; (dose: 240.0 mg/kg/injection, schedule: Q01DX005 (ip), vehicle: saline) 97 % of control.
Take `CN(C)C(n1cc2c(c1)-c1ccc(Cl)cc1C(c1ccccc1F)=NC2)n1cc2c(c1)-c1ccc(Cl)cc1C(c1ccccc1F)=NC2`: the T/C reads like this: under setting [9], 93 % of control; under setting [10], 92 % of control; under setting [11], 91 % of control.
`CCN(CC)Cc1cc(C)c(O)c(N=Nc2ccc3ccc4cccc5ccc2c3c45)c1C`: the T/C is 94 % of control under setting [12]; 87 % of control under setting [1]; 99 % of control and 122 % of control and 90 % of control under setting [3]; 105 % of control and 118 % of control and 94 % of control under setting [5]; 100 % of control and 105 % of control under setting [7]; 107 % of control under setting [13].
On to `C[CH2][Pb]([CH2]C)([CH2]C)[N]1C(=O)c2ccccc2C1=O`, for which the T/C was 110 % of control (dose: 1.56 mg/kg/injection, schedule: Q01DX009 (ip), vehicle: Klucel (hydroxypropylcellulose) (HPC)) and 118 % of control (dose: 3.12 mg/kg/injection, schedule: Q01DX009 (ip), vehicle: Klucel (hydroxypropylcellulose) (HPC)).
For `N#Cc1ccc(OC(=O)Nc2cc(Cl)cc(Cl)c2)cc1`, the T/C by setting is: under setting [9], 89 % of control; under setting [10], 106 % of control; under setting [11], 101 % of control.
As for `CC(=O)CS(C)(=O)=O`, the T/C is 103 % of control under setting [2], 102 % of control under setting [4], 101 % of control under setting [6] and 98 % of control under setting [8].
On to `O=[N+]([O-])c1cccc2c[n+](Cc3ccc(Br)cc3)ccc12`, for which the T/C reads like this: (dose: 6.25 mg/kg/injection, schedule: Q01DX009 (ip), vehicle: saline) 107 % of control; (dose: 12.5 mg/kg/injection, schedule: Q01DX009 (ip), vehicle: saline) 117 % of control; under setting [2], 118 % of control.
As for `CN1C(=O)c2ccccc2NC(=O)C12O[C@@H]2c1ccccc1` (some centres not stated), the T/C is 100 % of control (dose: 1.88 mg/kg/injection, schedule: Q01DX005 (ip), vehicle: DMSO); 106 % of control (dose: 3.75 mg/kg/injection, schedule: Q01DX005 (ip), vehicle: DMSO); 106 % of control (dose: 7.5 mg/kg/injection, schedule: Q01DX005 (ip), vehicle: DMSO); 114 % of control (dose: 15.0 mg/kg/injection, schedule: Q01DX005 (ip), vehicle: DMSO).
Consider `CN1C(c2ccccc2)CC(C)(O)CC1c1ccccc1` (configuration not stated), for which the T/C is 97 % of control under setting [9] and 98 % of control under setting [10].
For `COc1cccc2c1C(=O)c1c(O)c3c(c(O)c1C2=O)CC(O)(C(C)O)CC3` (configuration not stated), the T/C (dose: 1.0 mg/kg/injection, schedule: Q01DX009 (ip), vehicle: Klucel (hydroxypropylcellulose) (HPC)) was 102 % of control; the T/C (dose: 2.0 mg/kg/injection, schedule: Q01DX009 (ip), vehicle: Klucel (hydroxypropylcellulose) (HPC)) was 99 % of control; the T/C (dose: 4.0 mg/kg/injection, schedule: Q01DX009 (ip), vehicle: Klucel (hydroxypropylcellulose) (HPC)) is 95 % of control; the T/C (dose: 8.0 mg/kg/injection, schedule: Q01DX009 (ip), vehicle: Klucel (hydroxypropylcellulose) (HPC)) was 92 % of control.
For `COC1=CC(=O)C(OC)=C(c2c[nH]c3ccccc23)C1=O`, the T/C by setting is: under setting [9], 95 % of control; under setting [10], 87 % of control; under setting [11], 97 % of control.
As for `O=S1(=O)Cc2c(Br)c(Br)c(Br)c(Br)c2C1`, the T/C reads like this: (dose: 12.5 mg/kg/injection, schedule: Q01DX009 (ip), vehicle: saline sonified) 109 % of control; (dose: 25.0 mg/kg/injection, schedule: Q01DX009 (ip), vehicle: saline sonified) 109 % of control; (dose: 50.0 mg/kg/injection, schedule: Q01DX009 (ip), vehicle: saline sonified) 109 % of control.
Take `O=C(Nc1ccc2c(c1)Cc1cccc(NC(=O)C(Cl)Cl)c1-2)C(Cl)Cl`: the T/C runs as follows: under setting [5], 90 % of control; under setting [14], 91 % of control; under setting [7], 95 % of control; under setting [15], 91 % of control; under setting [13], 100 % of control; under setting [16], 87 % of control.
For the compound `CN(C)c1ccc(/C=C\c2cccc[n+]2C)cc1`, the T/C (dose: 0.39 mg/kg/injection, schedule: Q01DX009 (ip), vehicle: saline) was 99 % of control and 100 % of control; the T/C (dose: 0.78 mg/kg/injection, schedule: Q01DX009 (ip), vehicle: saline) is 100 % of control and 106 % of control; the T/C (dose: 1.56 mg/kg/injection, schedule: Q01DX009 (ip), vehicle: saline) was 100 % of control and 105 % of control; the T/C (dose: 3.12 mg/kg/injection, schedule: Q01DX009 (ip), vehicle: saline) was 109 % of control and 114 % of control.
With `Cc1nsc2[nH]c(=O)n(Nc3ccc(O)cc3)c(=O)c12`, the T/C (dose: 100.0 mg/kg/injection, schedule: Q01DX005 (ip), vehicle: saline with Tween-80) is 174 % of control and 178 % of control; the T/C (dose: 200.0 mg/kg/injection, schedule: Q01DX005 (ip), vehicle: saline with Tween-80) was 180 % of control.
Turning to `COc1ccc(C(C)c2cc3c(cc2OCC(C)=O)OCO3)cc1` (configuration not stated), the T/C runs as follows: under setting [9], 97 % of control; under setting [10], 94 % of control; under setting [11], 94 % of control.
As for `CC(=O)Nc1ccc(OCCOC(=O)Nc2ccc(C)cc2[N+](=O)[O-])cc1`, under “dose: 50.0 mg/kg/injection, schedule: Q01DX009 (ip), vehicle: Klucel (hydroxypropylcellulose) (HPC)”, the T/C was 88 % of control.
`O=C(Nc1ccc(Cl)c(Cl)c1)Nc1ccc(Cl)c(Cl)c1` (tested in a mixture with another compound): the T/C reads like this: (dose: 3.13 mg/kg/injection, schedule: Q01DX009 (ip), vehicle: saline with Tween-80) 97 % of control; (dose: 6.25 mg/kg/injection, schedule: Q01DX009 (ip), vehicle: saline with Tween-80) 88 % of control; under setting [12], 94 % of control.
For the compound `CN(C(=[Se])[Se]C(=[Se])N(C)C1CCCCC1)C1CCCCC1`, the T/C is 95 % of control (dose: 15.0 mg/kg/injection, schedule: Q01DX005 (ip), vehicle: Klucel (hydroxypropylcellulose) (HPC)); 96 % of control (dose: 30.0 mg/kg/injection, schedule: Q01DX005 (ip), vehicle: Klucel (hydroxypropylcellulose) (HPC)); 100 % of control and 93 % of control (dose: 60.0 mg/kg/injection, schedule: Q01DX005 (ip), vehicle: Klucel (hydroxypropylcellulose) (HPC)); 99 % of control (dose: 120.0 mg/kg/injection, schedule: Q01DX005 (ip), vehicle: Klucel (hydroxypropylcellulose) (HPC)).
For `Nc1cn(C2CC(O)C(CO)O2)c(=O)[nH]c1=O` (configuration not stated), the T/C is 106 % of control under setting [2], 105 % of control under setting [4], 105 % of control under setting [6] and 105 % of control under setting [8].
Regarding `CCCCCCCCCCCCOC(=O)OCCCCCCCCCCCC`, the T/C reads like this: under setting [14], 100 % of control; under setting [15], 100 % of control; under setting [16], 100 % of control.
